Measured values taken from patent US9649314B2, “Pyrimido[4,5-b]quinoline-4,5(3H,10H)-diones” (NOVARTIS AG, priority 2012, dated 2017).

Tested on: CFTR-Y122X
Experiment: CFTR-Y122X assay (dual reporter isogenic Hek293 cell lines, Renilla luminescence readthrough)
Type: cell-based
Details: Homo sapiens, HEK293; for Emax / AC50: nonsense mutation suppression, 24 h incubation; for Emax: 100% = 14 mM paromomycin, tested up to 100 μM, read-out: Amax [%]
Source text: Activity of compounds of the present invention was examined in recombinant, dual reporter isogenic Hek293 cell lines (“CFTR-Y122X assay”). The engineered reporter constructs contained the 18 bp sequence stretch corresponding to a common Y122X PTC mutation in CFTR class I mutant patients (see Sermet-Gaudelus, BMC Medicine, 2007, 5(5)). Instead of a tyrosine (Y) in position 122 of the CFTR protein a TGA stop codon interrupts the open reading frame (Y122X) of the corresponding mRNA. This TGA stop codon triplet (followed by the pyrimidine base cytosine) is permissive to aminoglycoside mediated translational readthrough which served as positive control for high throughput screening. A corresponding TAA stop codon variant and a wildtype non mutated construct was used for confirmation and counter screening. The CFTR sequence was sandwiched between an eGFP reporter, and a triple myc tag sequence fused to a full length Renilla reporter. All sequences, including an intron containing one positioned pre-eGFP (b-globin intron) were cloned in frame. The corresponding expression constructs were stably expressed in the isogenic HEK-R4 cell host (Invitrogen Incorp.) and selected by blasticidin resistance. The isogenic integration of the construct minimizes gene dose effects and improves assay reproducibility. Stably integrated single cell derived clones were selected and characterized for aminoglycoside mediated readthrough. […] Readthrough of Y122X accumulates an intracellular localized fusion protein approximately 65.5 kDa in size as controlled by western blot analysis and immunofluorescence using an anti-renilla antibody. The eGFP reporter pre-PTC mutation serves as visual control for genetic stability of the screening clones and minimizes protein degradation of small fusion protein amounts. In the assay, compound concentration was 10 μM. In miniaturized 1536 well format 2000 cells were dispensed in 4 μl/well and incubated for 24 h at 37° C., 5% CO2. 40 nl compounds were placed on the cells with control wells containing 1 ul Paramomycin and 14.4 mM final concentration. Compounds were incubated for 24 h. Renilla Glo substrate (2.5 ul) was added and plates were centrifuged and processed for luminescence measurement using various readers. Activity calculation was done using the equation: A1 (%)=100*(S−NC)/(AC−NC) where AC, NC and S correspond to active controls (injection of Stimulation buffer=100% stimulation), neutral controls (buffer injection which Iloprost EC10) and screening samples (S). NC corresponds to 0% activity whereas AC is 100% activity (14 mM paromomycin). False positive artefacts were removed in confirmation and validation screening using the same assay format followed by counterscreening using the respective wildtype construct (w/o PTC mutation) cell model. Compounds were tested up to 100 μM compound concentration.

| SMILES | Emax | AC50 | Emax at 12.5 µM (measured at 12.5 μM compound concentration (footnote b), read-out: Amax [%]: % nonsense mutation suppression relative to paromomycin reference activity) |
| --- | --- | --- | --- |
| CC(C)c1nc2c(c(=O)c3ccccc3n2C)c(=O)n1-c1ccccc1Cl [Example 1.16, 3-(2-chlorophenyl)-2-isopropyl-10-methylpyrimido[4,5-b]quinoline-4,5(3H,10H)-dione] | 200% | 9.3 µM | – |
| CC(C)c1nc2c(c(=O)c3ccccc3n2C)c(=O)n1-c1c(Cl)cccc1Cl [Example 1.17, 3-(2,6-dichlorophenyl)-2-isopropyl-10-methylpyrimido[4,5-b]quinoline-4,5(3H,10H)-dione] | 230% | 8.8 µM | – |
| Cc1ccccc1-n1c(C(C)C)nc2c(c(=O)c3ccccc3n2C)c1=O [Example 1.18, 2-isopropyl-10-methyl-3-(o-tolyl)pyrimido[4,5-b]quinoline-4,5(3H,10H)-dione] | 248% | 6.9 µM | – |
| COc1ccccc1-n1c(C(C)C)nc2c(c(=O)c3ccccc3n2C)c1=O [Example 1.19, 2-isopropyl-3-(2-methoxyphenyl)-10-methylpyrimido[4,5-b]quinoline-4,5(3H,10H)-dione] | – | – | 16% |
| CC(C)c1nc2c(c(=O)c3ccccc3n2C)c(=O)n1-c1ccccc1C(F)(F)F [Example 1.20, 2-isopropyl-10-methyl-3-(2-(trifluoromethyl)phenyl)pyrimido[4,5-b]quinoline-4,5(3H,10H)-dione] | 65% | 13.8 µM | – |
| CC(C)c1nc2c(c(=O)c3ccccc3n2C)c(=O)n1-c1cccc(Cl)c1 [Example 1.21, 3-(3-chlorophenyl)-2-isopropyl-10-methylpyrimido[4,5-b]quinoline-4,5(3H,10H)-dione] | 167% | 10.2 µM | – |
| COc1cccc(-n2c(C(C)C)nc3c(c(=O)c4ccccc4n3C)c2=O)c1 [Example 1.22, 2-isopropyl-3-(3-methoxyphenyl)-10-methylpyrimido[4,5-b]quinoline-4,5(3H,10H)-dione] | 23% | 1.9 µM | – |
| CC(C)c1nc2c(c(=O)c3cc(F)ccc3n2C)c(=O)n1-c1ccccc1 [Example 1.23, 7-fluoro-2-isopropyl-10-methyl-3-phenylpyrimido[4,5-b]quinoline-4,5(3H,10H)-dione] | 139% | 13.4 µM | – |
| CC(C)c1nc2c(c(=O)c3cc(Cl)ccc3n2C)c(=O)n1-c1ccccc1 [Example 1.24, 7-chloro-2-isopropyl-10-methyl-3-phenylpyrimido[4,5-b]quinoline-4,5(3H,10H)-dione] | 140% | 11.5 µM | – |
| CC(C)c1nc2c(c(=O)c3cc(Br)ccc3n2C)c(=O)n1-c1ccccc1 [Example 1.25, 7-bromo-2-isopropyl-10-methyl-3-phenylpyrimido[4,5-b]quinoline-4,5(3H,10H)-dione] | 68% | 19.5 µM | – |
| Cc1ccc2c(c1)c(=O)c1c(=O)n(-c3ccccc3)c(C(C)C)nc1n2C [Example 1.26, 2-isopropyl-7,10-dimethyl-3-phenylpyrimido[4,5-b]quinoline-4,5(3H,10H)-dione] | 254% | 9.6 µM | – |
| CC(C)c1nc2c(c(=O)c3cccc4c3n2CC4)c(=O)n1-c1ccccc1 [Example 1.27, 9-isopropyl-8-phenyl-1H-pyrimido[4,5-b]pyrrolo[3,2,1-ij]quinoline-6,7(2H,8H)-dione] | 271% | 6.8 µM | – |
| CC(C)c1nc2c(c(=O)c3ccccc3n2C)c(=O)n1-c1ccccc1 [Example 1.28, 2-isopropyl-10-methyl-3-phenylpyrimido[4,5-b]quinoline-4,5(3H,10H)-dione] | 361% | 7.6 µM | – |
| CCCCCc1nc2c(c(=O)c3ccccc3n2C)c(=O)n1-c1ccccc1 [Example 1.29, 10-methyl-2-pentyl-3-phenylpyrimido[4,5-b]quinoline-4,5(3H,10H)-dione] | 336% | 7.1 µM | – |
| CCCc1nc2c(c(=O)c3ccccc3n2C)c(=O)n1-c1ccccc1 [Example 1.30, 10-methyl-3-phenyl-2-propylpyrimido[4,5-b]quinoline-4,5(3H,10H)-dione] | 262% | 6.5 µM | – |
| CCc1nc2c(c(=O)c3ccccc3n2C)c(=O)n1-c1ccccc1 [Example 1.31, 2-ethyl-10-methyl-3-phenylpyrimido[4,5-b]quinoline-4,5(3H,10H)-dione] | 177% | 10.6 µM | – |
| Cn1c2ccccc2c(=O)c2c(=O)n(-c3ccccc3)c(C3CCCCC3)nc21 [Example 1.32, 2-cyclohexyl-10-methyl-3-phenylpyrimido[4,5-b]quinoline-4,5(3H,10H)-dione] | 38% | – | – |
| CCc1nc2c(c(=O)c3ccccc3n2C)c(=O)n1-c1cc(C)cc(C)c1 [Example 1.33, 3-(3,5-dimethylphenyl)-2-ethyl-10-methylpyrimido[4,5-b]quinoline-4,5(3H,10H)-dione] | 16% | 0.7 µM | – |
| CCCCCc1nc2c(c(=O)c3ccccc3n2C)c(=O)n1-c1cc(C)cc(C)c1 [Example 1.34, 3-(3,5-dimethylphenyl)-10-methyl-2-pentylpyrimido[4,5-b]quinoline-4,5(3H,10H)-dione] | 16% | 3.2 µM | – |
| Cc1cc(C)cc(-n2c(C(C)C)nc3c(c(=O)c4ccccc4n3C)c2=O)c1 [Example 1.35, 3-(3,5-dimethylphenyl)-2-isopropyl-10-methylpyrimido[4,5-b]quinoline-4,5(3H,10H)-dione] | 13% | 1.5 µM | – |
| CCCc1nc2c(c(=O)c3ccccc3n2C)c(=O)n1-c1cc(C)cc(C)c1 [Example 1.36, 3-(3,5-dimethylphenyl)-10-methyl-2-propylpyrimido[4,5-b]quinoline-4,5(3H,10H)-dione] | 9% | 1 µM | – |
| NCCn1c2ccccc2c(=O)c2c(=O)n(-c3ccccc3)c(C3CCC3)nc21 [Example 1.37, 10-(2-aminoethyl)-2-cyclobutyl-3-phenylpyrimido[4,5-b]quinoline-4,5(3H,10H)-dione] | 348% | 0.9 µM | – |
| CC(C)c1ccccc1-n1c(C(C)C)nc2c(c(=O)c3ccccc3n2C)c1=O [Example 1.38, 2-isopropyl-3-(2-isopropylphenyl)-10-methylpyrimido[4,5-b]quinoline-4,5(3H,10H)-dione] | 15% | – | – |
| O=c1c2ccccc2n(CCO)c2nc(C3CCC3)n(-c3ccccc3)c(=O)c12 [Example 1.39, 2-cyclobutyl-10-(2-hydroxyethyl)-3-phenylpyrimido[4,5-b]quinoline-4,5(3H,10H)-dione] | 250% | 3.2 µM | – |
| CC(C)c1nc2c(c(=O)c3ccccc3n2C)c(=O)n1-c1ccccc1Br [Example 1.40, 3-(2-bromophenyl)-2-isopropyl-10-methylpyrimido[4,5-b]quinoline-4,5(3H,10H)-dione] | 112% | 12.1 µM | – |
| CC(C)c1nc2c(c(=O)c3ccccc3n2CCN)c(=O)n1-c1ccccc1 [Example 1.41, 10-(2-aminoethyl)-2-isopropyl-3-phenylpyrimido[4,5-b]quinoline-4,5(3H,10H)-dione] | 198% | 19.5 µM | – |
| CC(C)c1nc2c(c(=O)c3ccccc3n2CCO)c(=O)n1-c1ccccc1 [Example 1.42, 10-(2-hydroxyethyl)-2-isopropyl-3-phenylpyrimido[4,5-b]quinoline-4,5(3H,10H)-dione] | 117% | 15.7 µM | – |
| COCCn1c2ccccc2c(=O)c2c(=O)n(-c3ccccc3)c(C(C)C)nc21 [Example 1.43, 2-isopropyl-10-(2-methoxyethyl)-3-phenylpyrimido[4,5-b]quinoline-4,5(3H,10H)-dione] | 9% | – | – |
